Source: publication PMC9228592, “Dichloroacetyl Amides of 3,5-Bis(benzylidene)-4-piperidones Displaying Greater Toxicity to Neoplasms than to Non-Malignant Cells” (Medicines, 2022)

The compounds below were run on HSC-4 squamous cell carcinoma cells (assay: Cytotoxicity (MTT, 48 h) against HSC-4 cells). Conditions: 48 h, MTT, mean ± S.D. of triplicate.
Type: cell-based, human
Source text: (§1) The target cells used in our study were human oral squamous cell carcinoma cell lines Ca9-22 (purchased from RIKEN Cell Bank, Tukuba, RCB-1976), HSC-2 (RCB1945), HSC-3 (RCB1975), HSC-4 (RCB1902), and three human normal oral cells, gingival fibroblast (HGF), periodontal ligament fibroblast (HPLF), and pulp cells (HPC) [established from the first premolar extracted tooth in the lower jaw (because of dysfunctional position or orthodontic treatment) and periodontal tissues of a child, according to the guideline of the Institutional Board of Meikai University Ethics Committee (No. A0808)], after obtaining informed consent from the patients. These cells were incubated for 48 h with the indicated concentrations of test samples or reference compounds sodium dichloroacetate (purchased from Sigma-Aldrich Chemical Company, Saint Louis, MO, USA), 5-fluorouracil (5-FU) from Kyowa (Tokyo, Japan), and doxorubicin (DXR) (St. Louis, MO, USA) and vehicle (DMSO) (0.008, 0.016, 0.031, 0.063, 0.125, 0.25, 0.5, and 1%) in Dulbecco’s Modified Eagle Medium (DMEM) media, which was supplemented with 10% heat-inactivated fetal bovine serum. Cell viability was determined by the MTT method. Cytotoxicity caused by the vehicle (DMSO) was subtracted.
(§2) SI was calculated by dividing the average CC50 value (concentration of the compound to kill 50% of the cells) of the compound towards HGF, HPLF, and HPC cells by the CC50 value of the compound against a specific neoplastic cell line.

Compound	CC50 [nM]
O=C1/C(=C/c2ccc3c(c2)OCO3)CN(C(=O)C(Cl)Cl)C/C1=C\c1ccc2c(c1)OCO2 [Compound 1i]	650 ± 170
Cc1ccc(C=C2CN(C(=O)C(Cl)Cl)CC(=Cc3ccc(C)cc3)C2=O)cc1 [Compound 1j]	450 ± 40
CN(C)c1ccc(C=C2CN(C(=O)C(Cl)Cl)CC(=Cc3ccc(N(C)C)cc3)C2=O)cc1 [Compound 1l]	19600 ± 6300

Same assay, conditions: average CC50 towards HGF, HPLF, HPC divided by CC50 against HSC-4

Compound	SI (HSC-4)
O=C1/C(=C/c2ccc3c(c2)OCO3)CN(C(=O)C(Cl)Cl)C/C1=C\c1ccc2c(c1)OCO2 [Compound 1i]	6.57
Cc1ccc(C=C2CN(C(=O)C(Cl)Cl)CC(=Cc3ccc(C)cc3)C2=O)cc1 [Compound 1j]	10.7
CN(C)c1ccc(C=C2CN(C(=O)C(Cl)Cl)CC(=Cc3ccc(N(C)C)cc3)C2=O)cc1 [Compound 1l]	7.14

These compounds were tested on periodontal ligament fibroblast (HPLF) (assay: Cytotoxicity (MTT, 48 h) against HPLF non-malignant cells). Conditions: mean ± S.D. of triplicate.
Type: cell-based, human
Source text: as §1

Compound	CC50 [µM]
O=C1/C(=C/c2ccc3c(c2)OCO3)CN(C(=O)C(Cl)Cl)C/C1=C\c1ccc2c(c1)OCO2 [Compound 1i]	4.37 ± 0.85
Cc1ccc(C=C2CN(C(=O)C(Cl)Cl)CC(=Cc3ccc(C)cc3)C2=O)cc1 [Compound 1j]	5 ± 0.1
CN(C)c1ccc(C=C2CN(C(=O)C(Cl)Cl)CC(=Cc3ccc(N(C)C)cc3)C2=O)cc1 [Compound 1l]	188 ± 21

Each compound was assayed on Ca9-22 squamous cell carcinoma cells (assay: Cytotoxicity (MTT, 48 h) against Ca9-22 cells). Conditions: 48 h, MTT, mean ± S.D. of triplicate.
Type: cell-based, human
Source text: as §1, §2

Compound	CC50 [nM]
O=C1/C(=C/c2ccc3c(c2)OCO3)CN(C(=O)C(Cl)Cl)C/C1=C\c1ccc2c(c1)OCO2 [Compound 1i]	170 ± 60
Cc1ccc(C=C2CN(C(=O)C(Cl)Cl)CC(=Cc3ccc(C)cc3)C2=O)cc1 [Compound 1j]	150 ± 30
CN(C)c1ccc(C=C2CN(C(=O)C(Cl)Cl)CC(=Cc3ccc(N(C)C)cc3)C2=O)cc1 [Compound 1l]	13600 ± 2700

Same assay, conditions: average CC50 towards HGF, HPLF, HPC divided by CC50 against Ca9-22

Compound	SI (Ca9-22)
O=C1/C(=C/c2ccc3c(c2)OCO3)CN(C(=O)C(Cl)Cl)C/C1=C\c1ccc2c(c1)OCO2 [Compound 1i]	25.1
Cc1ccc(C=C2CN(C(=O)C(Cl)Cl)CC(=Cc3ccc(C)cc3)C2=O)cc1 [Compound 1j]	32.1
CN(C)c1ccc(C=C2CN(C(=O)C(Cl)Cl)CC(=Cc3ccc(N(C)C)cc3)C2=O)cc1 [Compound 1l]	10.3

Each compound was assayed on pulp cells (HPC) (assay: Cytotoxicity (MTT, 48 h) against HPC non-malignant cells). Conditions: mean ± S.D. of triplicate.
Type: cell-based, human
Source text: as §1

Compound	CC50 [µM]
O=C1/C(=C/c2ccc3c(c2)OCO3)CN(C(=O)C(Cl)Cl)C/C1=C\c1ccc2c(c1)OCO2 [Compound 1i]	2.78 ± 0.14
Cc1ccc(C=C2CN(C(=O)C(Cl)Cl)CC(=Cc3ccc(C)cc3)C2=O)cc1 [Compound 1j]	3.93 ± 0.65
CN(C)c1ccc(C=C2CN(C(=O)C(Cl)Cl)CC(=Cc3ccc(N(C)C)cc3)C2=O)cc1 [Compound 1l]	122 ± 69

Each compound was assayed on HSC-3 squamous cell carcinoma cells (assay: Cytotoxicity (MTT, 48 h) against HSC-3 cells). Conditions: 48 h, MTT, mean ± S.D. of triplicate.
Type: cell-based, human
Source text: as §1, §2

Compound	CC50 [nM]
O=C1/C(=C/c2ccc3c(c2)OCO3)CN(C(=O)C(Cl)Cl)C/C1=C\c1ccc2c(c1)OCO2 [Compound 1i]	740 ± 130
Cc1ccc(C=C2CN(C(=O)C(Cl)Cl)CC(=Cc3ccc(C)cc3)C2=O)cc1 [Compound 1j]	460 ± 40
CN(C)c1ccc(C=C2CN(C(=O)C(Cl)Cl)CC(=Cc3ccc(N(C)C)cc3)C2=O)cc1 [Compound 1l]	45500 ± 7600

Same assay, conditions: average CC50 towards HGF, HPLF, HPC divided by CC50 against HSC-3

Compound	SI (HSC-3)
O=C1/C(=C/c2ccc3c(c2)OCO3)CN(C(=O)C(Cl)Cl)C/C1=C\c1ccc2c(c1)OCO2 [Compound 1i]	5.77
Cc1ccc(C=C2CN(C(=O)C(Cl)Cl)CC(=Cc3ccc(C)cc3)C2=O)cc1 [Compound 1j]	10.5
CN(C)c1ccc(C=C2CN(C(=O)C(Cl)Cl)CC(=Cc3ccc(N(C)C)cc3)C2=O)cc1 [Compound 1l]	3.08

These compounds were tested on gingival fibroblast (HGF) (assay: Cytotoxicity (MTT, 48 h) against HGF non-malignant cells). Conditions: mean ± S.D. of triplicate.
Type: cell-based, human
Source text: as §1

Compound	CC50 [µM]
O=C1/C(=C/c2ccc3c(c2)OCO3)CN(C(=O)C(Cl)Cl)C/C1=C\c1ccc2c(c1)OCO2 [Compound 1i]	5.67 ± 0.31
Cc1ccc(C=C2CN(C(=O)C(Cl)Cl)CC(=Cc3ccc(C)cc3)C2=O)cc1 [Compound 1j]	5.53 ± 0.31
CN(C)c1ccc(C=C2CN(C(=O)C(Cl)Cl)CC(=Cc3ccc(N(C)C)cc3)C2=O)cc1 [Compound 1l]	111 ± 27

Each compound was assayed on HGF, HPLF, and HPC cells (assay: Average cytotoxicity over the three non-malignant cells). Conditions: not given.
Type: cell-based, human
Source text: as §1

Compound	CC50 [µM]	CC50 Average (non-malignant cells)
O=C1/C(=C/c2ccc3c(c2)OCO3)CN(C(=O)C(Cl)Cl)C/C1=C\c1ccc2c(c1)OCO2 [Compound 1i]	4.27	
Cc1ccc(C=C2CN(C(=O)C(Cl)Cl)CC(=Cc3ccc(C)cc3)C2=O)cc1 [Compound 1j]	4.82	
CN(C)c1ccc(C=C2CN(C(=O)C(Cl)Cl)CC(=Cc3ccc(N(C)C)cc3)C2=O)cc1 [Compound 1l]	140	very low toxicity

Each compound was assayed on Ca9-22, HSC-2, HSC-3, and HSC-4 cells (assay: Average cytotoxicity, selectivity and PSE over the four carcinoma lines). Conditions: average of SI over Ca9-22, HSC-2, HSC-3, HSC-4.
Type: cell-based, human
Source text: as §1, §2
PSE reflects both the potencies and differences in cytotoxicity to neoplasms and non-malignant cells. This value was the product of the reciprocal of the average CC50 value of the compounds towards Ca9-22, HSC-2, HSC-3, and HSC-4 cells and the average SI value × 100.

Compound	Average SI
O=C1/C(=C/c2ccc3c(c2)OCO3)CN(C(=O)C(Cl)Cl)C/C1=C\c1ccc2c(c1)OCO2 [Compound 1i]	12.3
Cc1ccc(C=C2CN(C(=O)C(Cl)Cl)CC(=Cc3ccc(C)cc3)C2=O)cc1 [Compound 1j]	18.0
CN(C)c1ccc(C=C2CN(C(=O)C(Cl)Cl)CC(=Cc3ccc(N(C)C)cc3)C2=O)cc1 [Compound 1l]	7.48

Same assay, conditions: average over Ca9-22, HSC-2, HSC-3, HSC-4

Compound	CC50 [nM]
O=C1/C(=C/c2ccc3c(c2)OCO3)CN(C(=O)C(Cl)Cl)C/C1=C\c1ccc2c(c1)OCO2 [Compound 1i]	480
Cc1ccc(C=C2CN(C(=O)C(Cl)Cl)CC(=Cc3ccc(C)cc3)C2=O)cc1 [Compound 1j]	330
CN(C)c1ccc(C=C2CN(C(=O)C(Cl)Cl)CC(=Cc3ccc(N(C)C)cc3)C2=O)cc1 [Compound 1l]	23400

The compounds below were run on HSC-2 squamous cell carcinoma cells (assay: Cytotoxicity (MTT, 48 h) against HSC-2 cells). Conditions: 48 h, MTT, mean ± S.D. of triplicate.
Type: cell-based, human
Source text: as §1, §2

Compound	CC50 [nM]
O=C1/C(=C/c2ccc3c(c2)OCO3)CN(C(=O)C(Cl)Cl)C/C1=C\c1ccc2c(c1)OCO2 [Compound 1i]	360 ± 10
Cc1ccc(C=C2CN(C(=O)C(Cl)Cl)CC(=Cc3ccc(C)cc3)C2=O)cc1 [Compound 1j]	260 ± 10
CN(C)c1ccc(C=C2CN(C(=O)C(Cl)Cl)CC(=Cc3ccc(N(C)C)cc3)C2=O)cc1 [Compound 1l]	14900 ± 4400

Same assay, conditions: average CC50 towards HGF, HPLF, HPC divided by CC50 against HSC-2

Compound	SI (HSC-2)
O=C1/C(=C/c2ccc3c(c2)OCO3)CN(C(=O)C(Cl)Cl)C/C1=C\c1ccc2c(c1)OCO2 [Compound 1i]	11.9
Cc1ccc(C=C2CN(C(=O)C(Cl)Cl)CC(=Cc3ccc(C)cc3)C2=O)cc1 [Compound 1j]	18.5
CN(C)c1ccc(C=C2CN(C(=O)C(Cl)Cl)CC(=Cc3ccc(N(C)C)cc3)C2=O)cc1 [Compound 1l]	9.40
